Experimental data reported in ChEMBL document CHEMBL1146705, “Resistance towards exonucleases of dinucleotides with stereochemically altered internucleotide phosphate bonds” (Bioorg Med Chem Lett, 2004).

How the values were obtained:
[1] = Vmax towards phosphodiesterase 1
[2] = Ratio of Vmax to that of Km towards phosphodiesterase I (PDE I)
[3] = Ratio of Vmax to that of Km towards phosphodiesterase II (PDE II)
[4] = Affinity for phosphodiesterase 1
[5] = Vmax towards phosphodiesterase I and II; NS = Non-substrate

Compound	Vmax [1] [mM/min]	Ratio [2]	Ratio [3]	Km [4] [µM]	Vmax [5]
Nc1ccn(C2C[C@@H](O)[C@@H](COP(=O)(O)O[C@@H]3CC(n4cnc5c(N)ncnc54)O[C@@H]3CO)O2)c(=O)n1 (some centres undefined)	141	52.4	21.1	2700	–
Nc1ccn([C@H]2C[C@H](O)[C@@H](COP(=O)(O)O[C@H]3[C@H](n4cnc5c(N)ncnc54)CO[C@@H]3COP(=O)(O)O)O2)c(=O)n1	–	–	–	–	Non substrate
Nc1ccn(C2C[C@@H](O)[C@@H](COP(=O)(O)O[C@@H]3CC(n4ccc(N)nc4=O)O[C@@H]3CO)O2)c(=O)n1 (some centres undefined)	1450	1610	87.8	900	–

Second part, the molecule after the results:

Vmax [1] [mM/min]	Ratio [2]	Ratio [3]	Km [4] [µM]	Vmax [5]	Compound
19.2	15.4	4.5	1250	–	Nc1ccn(C2C[C@@H](O)[C@@H](COP(=O)(O)O[C@H]3[C@@H](CO)OC[C@@H]3n3cnc4c(N)ncnc43)O2)c(=O)n1 (some centres undefined)
–	–	–	–	Non substrate	Nc1ccn(C2C[C@@H](OP(=O)(O)OC[C@H]3OC[C@H](n4ccc(N)nc4=O)[C@H]3O)[C@@H](COP(=O)(O)O)O2)c(=O)n1 (some centres undefined)
